Where two headings read alike, the source gives them in different places.
Assays:
[1] = tested on: macrophage-tropic HIV-1Ba-L strain; experiment: Inhibition of macrophage-tropic HIV-1 Ba-L replication in de novo infected PM1 cells (p24 antigen); format: cell-based; conditions: d10
Procedure: (§1) HIV replication was measured either by p24 HIV Antigen Capture Assay Kit (ELISA; HIVAG-1 Monoclonal kit BIA011; Abbott) following the manufacturer's recommendation, or by using the Quantiplex HIV-1 RNA 3.0 Assay (bDNA) system (Chiron Diagnostics). The latter assay is a signal amplification nucleic acid probe assay (employing a sandwich nucleic acid hybridization procedure) for direct quantitation of HIV RNA in human plasma. There, in brief, HIV-1 is first concentrated from plasma by centrifugation. After release of genomic HIV-1 RNA from the virions, the RNA is captured to a microwell by a set of specific, synthetic oligonucleotide capture probes. A set of target probes hybridize to both the viral RNA and the pre-amplifier probes. The capture probes, comprised of 17 individual capture extenders, and the target probes, comprised of 81 individual target extenders, bind to different regions of the pol gene of the viral RNA. The amplifier probe hybridizes to the pre-amplifier forming a branched DNA (bDNA) complex. Then, multiple copies of an alkaline phosphatase labeled probe are hybridized to this immobilized bDNA complex. Detection is achieved by incubating the entire complex with a chemoluminescent substrate. Light emission is directly proportional to the amount of HIV-1 RNA present in each sample, and results are recorded as relative light units by an appropriate analyzer.
(§2) Jurkat cells (species: human T-cell leukemia; special characteristics: cells are permissive for growth of T-cell tropic HIV strains; source:ATCC Cat.No. TIB 152) or PM1 cells (species: clonal derivative of human HUT 78 cells; special characteristics: cells are permissive for growth of macrophage-tropic and T-cell tropic HIV strains; source: Dr. Marvin Reitz, courtesy of the NIH AIDS Research and Reference Reagent Program Cat.No. 3038) were stimulated with Phytohemagglutinin (PHA-P, Product No. L9132 from Sigma) in a concentration of 2 μg/ml (1.5×10^6 cells/ml) and Hexadimethrine Bromide (Polybrene, Product No. H9268 from Sigma) in a concentration of 2 μg/ml (1.5×10^6 cells/ml) in RPMI 1640 medium containing 10% fetal calf serum (FCS, Pansystems GmbH) and antibiotics for 3 days.
(§3) For HIV-1 infection, 5×10^7 cells were resuspended in 500 μl culture medium without test drugs and incubated in a 50 ml blue-cap-tube at 37° C. for 5 hrs with HIV-1 high titer viral stocks. Jurkat cells were infected with the T-cell tropic strain HIV-1 NL4-3, PM1 cells with the macrophage tropic strain HIV-1 Ba-L (both from the NIH AIDS Research and Reference Reagent Program). After infection, cells were washed twice with PBS without Ca^2+ and Mg^2+ to avoid false positive p24 antigen determination. Cells were resuspended, and identical aliquots (1×10^6/ml) of infected cells were further cultured in 10 ml medium with test drugs at various concentrations, or in medium with DMSO as control for calculation of the inhibition of virus replication (in %].
(§4) Culture medium was changed and cells were split at days 3 and 7 of the experiments. Viability of the cells (Trypan-blue staining), cell counts and p24 antigen levels were determined at days 3, 7 and 10 of the experiments. No significant differences in cell viability were observed (˜85-90% living cells).
(§5) At day 10 of infection, the HIV strains replicated vigorously in untreated cultures. Numbers describe percent inhibition of HIV replication as compared to control experiments.

[2] = tested on: T-cell-tropic HIV-1NL4/3 strain; experiment: Inhibition of T-cell-tropic HIV-1 NL4/3 replication in de novo infected Jurkat cells (p24 antigen); format: cell-based; conditions: d10
Procedure: as §1, §2, §3, §4, §5

HBV = HBV replication in chronically infected HepG2 2.2.15 cells (TaqMan PCR of HBV DNA); format: cell-based, Hepatitis B virus; conditions: for IC50: chronically HBV-infected HepG2 2.2.15 cells
Procedure: Human HepG2-2.2.15 cells (ATCC Cat. No. CRL-11997), chronically infected with HBV, are plated in 96-well microtiter plates in DMEM medium supplemented with fetal bovine serum. After incubation at 37° C. in a humidified, 5% CO2 environment for 16-24 hours, the monolayer of HepG2-2.2.15 cells is washed and the medium is replaced with complete medium containing various concentrations of test compound. Every three days during the experiments, the culture medium is replaced with fresh medium containing the appropriately diluted test compound. Six days following the initial administration of the test compound, the cell culture supernatant is collected and clarified by centrifugation. The cell viability is evaluated by a dye uptake procedure (Promega's Cell Titer Aqueous One Solution). Virion-associated HBV DNA present in the tissue culture supernatant is amplified employing PCR technology using primer pairs derived from the HBV strain ayw. Subsequently, the PCR-amplified HBV DNA is detected in real-time by monitoring increases in fluorescence signals that result from exonucleolytic degradation of a quenched fluorescent probe molecule following hybridization of the probe to the amplified HBV DNA (TaqMan; Perkin-Elmer).

Vero cells = tested on: Vero cells
Procedure: A cytoprotection assay procedure using MTS is employed to evaluate compounds for antiviral activity against Respiratory Syncytial Virus (Long) in Vero (African green monkey, ATCC Cat. No. CCL-81) cells. The cells are pre-grown overnight at 37° C. (2×10^4/well in 96 well tissue culture plates) with 10% fetal Bovine serum containing Minimum Essential Medium. The positive control for the assay is Interferon-Gamma/Ribavirin. The infection medium contains reduced serum levels (2% FBS).
Using half log dilutions with high test starting at 100 μg/ml the drug dilutions are made and added to triplicate cultures in 0.1 ml volume and pre-titrated virus suspension is also added in 0.1 ml volume. […] CPE inhibition is determined by dye uptake procedure (Celltiter-MTS). […] The amount of soluble formazan produced by cellular reduction of the MTS is measured by the absorbance at 490 nm. The quantity of formazan product as measured by the amount of 490 nm absorbance is directly proportional to the number of living cells in the culture thus allowing the rapid quantitative analysis of the inhibition of virus-induced cell killing by the test substances. […]
The inhibitory drug concentration which reduces the viral replication by 95% (IC95) and the minimum drug concentration which inhibits cell growth by 95% (TC95) are calculated by using a regression analysis program for semilog curve fitting. […]

Question: `CC(=NNC(=N)N)c1cc(NC(=O)CCCCCCCCC(=O)Nc2cc(C(C)=NNC(=N)N)cc(C(C)=NNC(=N)N)c2)cc(C(C)=NNC(=N)N)c1` [Compound 4, N,N′-bis (3,5-diacetylphenyl) decane diamide tetrakis (amidinohydrazone)] was tested. Which “percent inhibition of HIV replication as compared to control” value (“percent inhibition of HIV replication” below) ([1]; 0.5 μM) did it give?
Answer: 82%

Question: And the “percent inhibition of HIV replication” value ([1]; 1.0 μM)?
Answer: 73%

Question: And the “percent inhibition of HIV replication” value ([2]; HIV-1 NL4/3, 0.5 μM)?
Answer: 31%

Question: And the “percent inhibition of HIV replication” value ([2]; HIV-1 NL4/3, 1.0 μM)?
Answer: 85%

Question: And the Comments (HBV; HBV, HepG2 2.2.15 cells)?
Answer: Active

Question: And the IC50 (HBV; six days, read-out: IC50 (μM) Virion-DNA)?
Answer: 3.19 µM

Question: And the IC50 (HBV; read-out: IC50 (μM) Intracellular Viral DNA)?
Answer: 4.96 µM

Question: And the CC50 (Vero cells)?
Answer: 8.68 µM

Question: What about the “TC95” value (Vero cells) of the same molecule?
Answer: 30.20 µM

Source: US20030203969A1, “Pharmaceutically active aromatic guanylhydrazones” (priority 2000, published 2003)
